For this test, the system named is aromatase. Put plainly: PMSG test in infantile female rats, orally (serum estradiol). Type of test: in vivo, rat. The conditions noted are these: for Concentration in serum estradiol / % inhibition (against the PMSG control): 10 mg/animal, 2 × p.o., PMSG-treated infantile female rats; for Concentration in serum estradiol: mean with standard deviation, groups of 10; for % inhibition (against the PMSG control): serum estradiol; for effectiveness in oral application: 2×10 mg, PMSG test, in words. Here is the method: The aromatase activity can be measured by the influence of the estrogen formation stimulated by PMSG. [J. Steroid. Biochem., 7 (1976) 787] Anit-tumor activity in humans of compounds which have a positive effect in the PMSG test is described in The Lancet, 1 Dec. 1984, ppg. 1237-1239.
In the so-called PMSG test 21-day-old female rats are pretreated subcutaneously every other day for a total of 7 times with 100 IU of PMSG each time. 1 hour before and 8 hours after the last PMSG application (d12) the animals receive the test substance by oral dose. They are killed 24 hours after the last PMSG application. The estradiol is examined radioimmunologically in the serum. The average value of the estradiol concentration in nmol/l with standard deviation is calculated for each group of 10 animals. The significance of the differences from the control group are examined by analysis of variance.
The percentage inhibition is calculated against the PMSG control.

`C=C1C=C2CC[C@@H]3[C@H](CC[C@]4(C)C(=O)CC[C@@H]34)[C@@]2(C)CC1` (stereo in doubt) [B, 3-methylene-4-androsten-17-one]: the “Concentration in serum estradiol” value amounted to 6.20 ± 0.80 nmol/L, the “% inhibition (against the PMSG control)” value stood at 0% and the “effectiveness in oral application” value is on record as “no effectiveness”.
On to `C[C@]12CCC(=O)C(O)=C1CC[C@@H]1[C@@H]2CC[C@]2(C)C(=O)CC[C@@H]12` [A, 4-hydroxy-4-androstene-3,17-dione], for which the “Concentration in serum estradiol” value was 6.08 ± 0.56 nmol/L, the “% inhibition (against the PMSG control)” value turned out to be 0% and the “effectiveness in oral application” value is reported as “no effectiveness”.
For the compound `CSC[C@]12CCC(=CF)C=C1CC[C@@H]1[C@@H]2CC[C@]2(C)C(=O)CC[C@@H]12` [C, 3-fluoromethylene-19-methylthio-4-androsten-17-one], the “Concentration in serum estradiol” value is 3.24 ± 0.81 nmol/L, the “% inhibition (against the PMSG control)” value was 45% and the “effectiveness in oral application” value was “markd inhibition effectiveness”.
